Laboratory results: PubChem BioAssay (NCI)
Values joined by “and” are separate entries in the source; they are usually repeats but may differ in a detail not shown here. Equal values may be shown once.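 Step 1: Grow cells in 96-well plates. Step 2: Expose to compound for 48 hours at 5 concentrations. Step 3: Interpolate endpoints linearly; if unreached, use highest concentration. The concentration for 50% growth inhibition is given as GI50. TGI: concentration producing complete growth inhibition.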

tested on: MDA-MB-468 breast; assay: inhibition of tumour cell growth, NCI panel, 48 h

In order of rising GI50:
1. CC/C(=N\Nc1nc2ccccc2n1C)c1ccccn1  0.0284 µM
2. CCN1CCC[C@H]1c1cc(O)c2c(c1OC)C[C@H]1C[C@H]3[C@H](N)C(=O)C(C(N)=O)=C(O)[C@@]3(O)C(=O)C1=C2O  0.0446 µM
3. O=C(Nc1cccc(Cl)c1)Nc1cccc(Cl)c1  0.0456 µM
4. Cc1cccc(CN(C)c2ccc(CO)c(Cl)c2)c1  0.0572 µM
5. c1cncc(CNc2ccccc2-c2nnc(Nc3ccc4c(c3)OCO4)o2)c1  0.153 µM
6. O=C1C2=C(C(=O)c3c(O)ccc(O)c31)N(c1ccc(N3CCOCC3)nc1)Cc1ccccc1O2  0.217 µM
7. C=CCN1C(=O)/C(=c2\sc3n(c2=O)C2C(NN=3)N(CC)C(=O)N2CC)c2ccccc21 (centres undefined)  0.293 µM
8. COc1ccc(CN2c3ccccc3Sc3ccccc32)cc1F  0.309 µM
9. COc1cc(CNC(=O)/C=C/C=C/c2ccc3c(c2)OCO3)ccc1OCc1cn(-c2ccc(Cl)c(Cl)c2)nn1  0.788 µM
10. Cn1cc(-c2csc(-c3c[nH]c4ncccc34)n2)c2cc(Br)cnc21  0.812 µM
11. Nc1nc(N)c2cc(CNc3ccc(Cl)c(Cl)c3)ccc2n1  0.903 µM
12. CN(C)CC(C(=O)c1ccccc1)c1ccccc1 (centres undefined)  0.95 µM
13. C=C1C(=O)O[C@@H]2C[C@@H](C)/C=C\C(=O)[C@](C)(OC(C)=O)C[C@H](OC(=O)/C(C)=C\C)[C@@H]12  1.01 µM
14. CCCCCCN(CCCCCC)CCCNc1nccc2ccccc12  1.34 µM
15. CCN1CCN(CCOc2ccc(CNc3ccc4nc(CCC5CCCCC5)[nH]c4c3)cc2)CC1  1.67 µM
16. COc1cc(/C=C/C(=O)C(=Cc2ccc(F)c(F)c2)C(=O)/C=C/c2ccc(O)c(OC)c2)ccc1O  1.7 µM
17. CSc1ccc2c(c1)c(CCN)c(C)n2Cc1ccc(Cl)c(Cl)c1  1.78 µM
18. CCc1nn2c(C)cc(C)nc2c1Cc1ccc(/C=C/CN2CCN(CCOCCOCCN3CCN(C/C=C/c4ccc(Cc5c(CC)nn6c(C)cc(C)nc56)cc4)CC3)CC2)cc1  1.79 µM
19. O=C(N[C@H](c1ccc(Cl)c(Cl)c1)C1CNC1)c1ccc2cnccc2c1  1.85 µM
20. CCNC(=O)Oc1ccc(/C(=C(/C)c2ccccc2)c2ccc(OCCN3CCCCCC3)cc2)cc1  2.06 µM
21. CCOc1ccc(Cc2nccc3cc(OCC)c(OCC)cc23)cc1OCC  2.29 µM
22. COC(=O)[C@]12CC[C@@H](C)[C@H](C)[C@@H]1C1=CC[C@@H]3[C@@]4(C)C[C@@H](OC(=O)c5ccco5)[C@H](O)[C@@](C)(CO)[C@@H]4[C@H](O)C[C@@]3(C)[C@]1(C)CC2  2.34 µM
23. Cc1ccc(/C=C(\C#N)n2nnc3cc(Cl)c(Cl)cc32)cc1  2.4 µM
24. Fc1ccc(-c2nc(-c3nc4ccc(Cl)cc4[nH]3)cc3c2[nH]c2ccccc23)cc1  2.43 µM
25. O=S(=O)(NCCNc1nccc(-c2c(-c3cccc(O)c3)nc3sccn23)n1)c1ccc(F)cc1  2.62 µM
26. O=C1Cc2cc(CCn3ccnc3)c(Cl)cc2N1  2.74 µM
27. CCCNc1nc(N(C)O)nc(N(C)O)n1  2.75 µM
28. CCCc1cc(=O)oc2c(C(=O)CC(C)C)c(O)c(CC=C(C)C)c(O)c12  3.72 µM
29. N#Cc1ccc(Oc2nccc(-c3c(-c4ccc(F)cc4)ncn3C3CCNCC3)n2)cc1  5.91 µM
30. C=C1CC[C@@H]2C(C)(C)[C@@H](O)CC[C@@]2(C)[C@@H]1COc1ccc2ccc(=O)oc2c1  6.36 µM
31. O=C(CCCn1c2c(sc3ncccc32)c(=O)n2nnc(-c3ccccc3)c12)NCCc1cnc[nH]1  8.06 µM
32. O=C1NC(=NCC(CO)c2ccccc2)S/C1=C\c1ccc2ncccc2c1 (centres undefined)  8.8 µM
33. O=C1NC(=NCc2cccs2)SC1Cc1ccc2ncccc2c1 (centres undefined)  11.8 µM
34. COc1cc2c(cc1OC)C(CCc1ccc(Cl)cc1)N(C)CC2 (centres undefined)  16.3 µM
35. CC(C)=CC/C=C(/C)[C@H]1CC[C@]2(C)[C@@H]1CC[C@@H]1[C@@]3(C)CCC(=O)NC(C)(C)[C@@H]3CC[C@]12C  16.5 µM

First: N#Cc1ccc(Oc2nccc(-c3c(-c4ccc(F)cc4)ncn3C3CCNCC3)n2)cc1
Second: O=S(=O)(NCCNc1nccc(-c2c(-c3cccc(O)c3)nc3sccn23)n1)c1ccc(F)cc1
The TGI of the first is higher: over 25 µM for the first, 24.2 µM for the second.

Going from `Nc1nc(N)c2cc(CNc3ccc(Cl)c(Cl)c3)ccc2n1` to `CSc1ccc2c(c1)c(CCN)c(C)n2Cc1ccc(Cl)c(Cl)c1`, the TGI rises from 2.19 µM to 3.47 µM (1.6-fold).

`CCc1nn2c(C)cc(C)nc2c1Cc1ccc(/C=C/CN2CCN(CCOCCOCCN3CCN(C/C=C/c4ccc(Cc5c(CC)nn6c(C)cc(C)nc56)cc4)CC3)CC2)cc1` and `CCN1CCN(CCOc2ccc(CNc3ccc4nc(CCC5CCCCC5)[nH]c4c3)cc2)CC1` are within 1.5-fold of each other in TGI: 3.81 µM for the first, 4.11 µM for the second.

`O=C(CCCn1c2c(sc3ncccc32)c(=O)n2nnc(-c3ccccc3)c12)NCCc1cnc[nH]1` and `O=C1NC(=NCC(CO)c2ccccc2)S/C1=C\c1ccc2ncccc2c1` (centres undefined) cannot be ordered by TGI: 27.4 µM for the first, over 25 µM for the second.

First: O=C(N[C@H](c1ccc(Cl)c(Cl)c1)C1CNC1)c1ccc2cnccc2c1
Second: O=C(Nc1cccc(Cl)c1)Nc1cccc(Cl)c1
The TGI of the first is 4.2-fold lower: 10.4 µM for the first, 43.6 µM for the second.

Compared with `CN(C)CC(C(=O)c1ccccc1)c1ccccc1` (centres undefined), `CC/C(=N\Nc1nc2ccccc2n1C)c1ccccn1` is 13-fold lower in TGI: 2.63 µM for the first, 0.207 µM for the second.

`COc1cc(/C=C/C(=O)C(=Cc2ccc(F)c(F)c2)C(=O)/C=C/c2ccc(O)c(OC)c2)ccc1O` and `COc1cc(CNC(=O)/C=C/C=C/c2ccc3c(c2)OCO3)ccc1OCc1cn(-c2ccc(Cl)c(Cl)c2)nn1` are within 1.5-fold of each other in TGI: 3.47 µM for the first, 2.46 µM for the second.

`C=C1C(=O)O[C@@H]2C[C@@H](C)/C=C\C(=O)[C@](C)(OC(C)=O)C[C@H](OC(=O)/C(C)=C\C)[C@@H]12` and `COC(=O)[C@]12CC[C@@H](C)[C@H](C)[C@@H]1C1=CC[C@@H]3[C@@]4(C)C[C@@H](OC(=O)c5ccco5)[C@H](O)[C@@](C)(CO)[C@@H]4[C@H](O)C[C@@]3(C)[C@]1(C)CC2` are within 1.5-fold of each other in TGI: 5.08 µM for the first, 6.54 µM for the second.

`CCN1CCC[C@H]1c1cc(O)c2c(c1OC)C[C@H]1C[C@H]3[C@H](N)C(=O)C(C(N)=O)=C(O)[C@@]3(O)C(=O)C1=C2O` and `O=C1C2=C(C(=O)c3c(O)ccc(O)c31)N(c1ccc(N3CCOCC3)nc1)Cc1ccccc1O2` are within 1.5-fold of each other in TGI: 0.717 µM for the first, 0.516 µM for the second.

Compared with `CCOc1ccc(Cc2nccc3cc(OCC)c(OCC)cc23)cc1OCC`, `COc1cc2c(cc1OC)C(CCc1ccc(Cl)cc1)N(C)CC2` (centres undefined) is 2.1-fold higher in TGI: 18.3 µM for the first, 38.1 µM for the second.

Compared with `CCCCCCN(CCCCCC)CCCNc1nccc2ccccc12`, `Cc1cccc(CN(C)c2ccc(CO)c(Cl)c2)c1` is 17-fold lower in TGI: 2.91 µM for the first, 0.176 µM for the second.

`N/C(=N\O)c1ncc(-c2ccc(C(F)(F)F)cc2)c(NC2CCCCCC2)n1` and `C=C1CC[C@@H]2C(C)(C)[C@@H](O)CC[C@@]2(C)[C@@H]1COc1ccc2ccc(=O)oc2c1` are within 1.5-fold of each other in TGI: 17.9 µM for the first, 25.9 µM for the second.

Going from `Cc1ccc(/C=C(\C#N)n2nnc3cc(Cl)c(Cl)cc32)cc1` to `Fc1ccc(-c2nc(-c3nc4ccc(Cl)cc4[nH]3)cc3c2[nH]c2ccccc23)cc1`, the TGI rises from 6.65 µM to 11.5 µM (1.7-fold).

Compared with `COc1ccc(CN2c3ccccc3Sc3ccccc32)cc1F`, `c1cncc(CNc2ccccc2-c2nnc(Nc3ccc4c(c3)OCO4)o2)c1` is higher in TGI: 53.4 µM for the first, over 100 µM for the second.

Compared with `O=C1Cc2cc(CCn3ccnc3)c(Cl)cc2N1`, `O=C1NC(=NCc2cccs2)SC1Cc1ccc2ncccc2c1` (centres undefined) is higher in TGI: 11.3 µM for the first, over 25 µM for the second.

`CC(C)=CC/C=C(/C)[C@H]1CC[C@]2(C)[C@@H]1CC[C@@H]1[C@@]3(C)CCC(=O)NC(C)(C)[C@@H]3CC[C@]12C` and `CCCc1cc(=O)oc2c(C(=O)CC(C)C)c(O)c(CC=C(C)C)c(O)c12` are within 1.5-fold of each other in TGI: 34.2 µM for the first, 27 µM for the second.

Compared with `C=CCN1C(=O)/C(=c2\sc3n(c2=O)C2C(NN=3)N(CC)C(=O)N2CC)c2ccccc21` (centres undefined), `Cn1cc(-c2csc(-c3c[nH]c4ncccc34)n2)c2cc(Br)cnc21` is 15-fold higher in TGI: 3.75 µM for the first, 56.7 µM for the second.

First: CCCNc1nc(N(C)O)nc(N(C)O)n1
Second: CCNC(=O)Oc1ccc(/C(=C(/C)c2ccccc2)c2ccc(OCCN3CCCCCC3)cc2)cc1
The TGI of the first is higher: over 70.7 µM for the first, 5.63 µM for the second.

`Oc1nc(NCCc2ccccc2)sc1/C=C1\C=Nc2ncccc21` was tested, and the GI50 was 1.51 µM and 2.05 µM.
With `N/C(=N\O)c1ncc(-c2ccc(C(F)(F)F)cc2)c(NC2CCCCCC2)n1` the GI50 was 8.27 µM and 3.63 µM.

For `Oc1nc(NCCc2ccccc2)sc1/C=C1\C=Nc2ncccc21`, the TGI was 3.6 µM and 6.37 µM.
